Data as given in PubChem BioAssay AID2060895 (Molecular Pharmacology Branch, DTP, NCI, 2025).

Tested on: PDC 899932-113-R3-J6 complex spheroid viability
Assay: Anticancer human tumor 899932-113-R3-J6-PDC patient-derived melanoma cell line growth inhibition [RAS]
Settings: for IC50: curve of first compound; for viability, T/C: stronger effect = lower value
Excerpt: RAS pathway inhibitors in Combinations in Complex Spheroids
A high-throughput screen of multi-cell type tumor spheroids was designed to identify active combinations of RAS pathway inhibitors and targeted small molecules. Complex spheroids include a stromal component modeled by human endothelial cells (HUVEC) and fibroblasts modeled by human mesenchymal stem cells (MSCs). The concentration ranges selected for each drug and investigational agent were based upon clinically achievable concentrations if the clinical Cmax of the agent was known.
Compounds. The drugs and investigational agents: abemaciclib (NSC768073), cobimetinib (NSC768068), divarasib (GDC6063, NSC841802), docetaxel (NSC628503), GDC-1971 (RLY-1971, NSC841576), gemcitabine (NSC613327), inavolisib (NSC800729), ipatasertib (NSC767898), KB-0742 (NSC834161), MRTX-1133 (NSC836407), osimertinib (NSC779217), RMC-4630 (NSC839698), RMC-6236 (NSC851965), RMC-6291 (NSC852671), Ro-3306 (NSC812927), sapanisertib (NSC764658), SN-38 (NSC673596), staurosporine (NSC755774), SY5609 (NSC837396), and tovorafenib (DAY101, NSC766906), were obtained from the National Cancer Institute (NCI) Developmental Therapeutics Program Chemical Repository. The FDA-approved anticancer drug set is available from the NCI Developmental Therapeutics Program. […] The stock solutions were prepared in dimethyl sulfoxide (DMSO, Sigma-Aldrich, St. Louis, MO, cat. D2650) at 800-fold the tested concentration and stored at -70 degrees C prior to their use. All drugs and investigational agents were tested over a range starting from a high concentration at or near the clinical Cmax and decreasing in half-log increments. If the clinical Cmax for an agent had not been determined, the highest concentration tested was 10 microM.
Cell Culture. All cells were maintained in an incubator at 37 degrees C and 5% CO2 with 95% humidity. The PDC lines were cultured according to standard operating procedures established by the NCI PDMR. All PDCs were thawed and cultured in Matrigel-coated flasks prepared with a working solution of 1X Ham's F-12 nutrient mix, without supplementation (Invitrogen, Waltham, MA, cat. 11765054), 100 U/mL penicillin-streptomycin (Invitrogen, cat. 15140122), and 2.5% Matrigel (Corning Inc., Corning, NY, cat. 354248) for the first three passages. The 362531-283-R-J2-PDC and 782815-120-R-J1-PDC lines were cultured in 6C/Colon 1B media, which includes advanced DMEM/F-12 (Thermo Fisher Scientific, cat. 12634028), 10 mM HEPES (Thermo Fisher Scientific, cat. 15630080), 1X GlutaMAX supplement (Thermo Fisher Scientific, cat. 35050061), 0.1 mg/mL primocin (InvivoGen, San Diego, CA, cat. ant-pm-2), 10% defined fetal bovine serum, heat inactivated (HyClone Laboratories Inc., Logan, UT, cat. SH30070.03HI), 50% L-WRN conditioned media (ATCC, cat. CRL-3276), 1.25 mM N-Acetyl-L-cysteine (Sigma-Aldrich, cat. A9165), 10 mM nicotinamide (Sigma-Aldrich, cat. N0636), 1X B-27 supplement (Thermo Fisher Scientific, cat. 17504044), 1X N-2 supplement (Thermo Fisher Scientific, cat. 17502048), 50 ng/mL human EGF (Thermo Fisher Scientific, cat. PHG0311), and 10 microM Y-27632 dihydrochloride (Tocris Bioscience, cat. 1254). The K12877-001-R-J1-PDC line was cultured in 6I media, which includes all 6C/Colon 1B media plus 10 ng/mL human FGF-10 (PeproTech, cat. 100-26), 1 ng/mL human FGF-2 (PeproTech, cat. 100-18B), 1 µM prostaglandin E2 (Tocris Bioscience, cat. 2296), […] hydrocortisone (Sigma-Aldrich, cat. H4001), and […] bovine insulin (Sigma-Aldrich, cat. I6634). The K86415-001-R-J1-PDC line was cultured in 6D media, which includes all 6C/Colon 1B media components minus the L-WRN conditioned media. The 485176-168-R4-J1-PDC was cultured in PANC media, which includes all 6C/Colon 1B media plus 100 ng/mL human FGF-10 (PeproTech, cat. 100-26), 500 nM SB-431542 (Selleckchem, cat. S1067), and 10 nM gastrin (Tocris Bioscience, cat. 3006). […]
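Wherever viability, T/C is given: spheroids exposed to agents for seven days before readout; 100% = DMSO vehicle control wells.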

Cc1nc(N2CCC3(CC2)COC(C)C3N)c(CO)nc1Sc1ccnc(N)c1Cl (configuration not stated) + C#Cc1c(F)ccc2cc(O)cc(-c3ncc4c(N5CC6CCC(C5)N6)nc(OCC56CCCN5CC(F)C6)nc4c3F)c12
IC50 (second compound 0.0316 µM): > 10 µM
IC50 (second compound 0.1 µM): > 10 µM
IC50 (second compound 0.316 µM): > 10 µM
IC50 (second compound 1 µM): > 10 µM
IC50 (second compound 3.16 µM): > 10 µM
IC50 (second compound 10 µM): > 10 µM
viability, T/C (second compound 0.0316 µM, first compound 0.0316 µM): 98.1%
viability, T/C (second compound 0.0316 µM, first compound 0.1 µM): 104%
viability, T/C (second compound 0.0316 µM, first compound 0.316 µM): 108%
viability, T/C (second compound 0.0316 µM, first compound 1 µM): 104%
viability, T/C (second compound 0.0316 µM, first compound 3.16 µM): 118%
viability, T/C (second compound 0.0316 µM, first compound 10 µM): 119%
viability, T/C (second compound 0.1 µM, first compound 0.0316 µM): 99.3%
viability, T/C (second compound 0.1 µM, first compound 0.1 µM): 99.1%
viability, T/C (second compound 0.1 µM, first compound 0.316 µM): 107%
viability, T/C (second compound 0.1 µM, first compound 1 µM): 103%
viability, T/C (second compound 0.1 µM, first compound 3.16 µM): 114%
viability, T/C (second compound 0.1 µM, first compound 10 µM): 123%
viability, T/C (second compound 0.316 µM, first compound 0.0316 µM): 111%
viability, T/C (second compound 0.316 µM, first compound 0.1 µM): 101%
viability, T/C (second compound 0.316 µM, first compound 0.316 µM): 96.3%
viability, T/C (second compound 0.316 µM, first compound 1 µM): 118%
viability, T/C (second compound 0.316 µM, first compound 3.16 µM): 117%
viability, T/C (second compound 0.316 µM, first compound 10 µM): 119%
viability, T/C (second compound 1 µM, first compound 0.0316 µM): 106%
viability, T/C (second compound 1 µM, first compound 0.1 µM): 109%
viability, T/C (second compound 1 µM, first compound 0.316 µM): 108%
viability, T/C (second compound 1 µM, first compound 1 µM): 113%
viability, T/C (second compound 1 µM, first compound 3.16 µM): 116%
viability, T/C (second compound 1 µM, first compound 10 µM): 122%
viability, T/C (second compound 3.16 µM, first compound 0.0316 µM): 126%
viability, T/C (second compound 3.16 µM, first compound 0.1 µM): 110%
viability, T/C (second compound 3.16 µM, first compound 0.316 µM): 108%
viability, T/C (second compound 3.16 µM, first compound 1 µM): 112%
viability, T/C (second compound 3.16 µM, first compound 3.16 µM): 122%
viability, T/C (second compound 3.16 µM, first compound 10 µM): 121%
viability, T/C (second compound 10 µM, first compound 0.0316 µM): 106%
viability, T/C (second compound 10 µM, first compound 0.1 µM): 111%
viability, T/C (second compound 10 µM, first compound 0.316 µM): 112%
viability, T/C (second compound 10 µM, first compound 1 µM): 123%
viability, T/C (second compound 10 µM, first compound 3.16 µM): 113%
viability, T/C (second compound 10 µM, first compound 10 µM): 123%
